Experimental data: patent publication US20260078103A1, “ISOQUINOLONES AS PI3K INHIBITORS” (OnKure, Inc., priority 2022, published 2026)
Where two headings read alike, the source gives them in different places.

Key:
Format in all cases: cell-based
[1] = system: T47D cells expressing mutant PI3Ka (H1047R); assay: In vitro cell proliferation, T47D cells (CellTiter-Glo); details: inhibition of proliferation, read-out: Avg T-47D EC50
In short: (§1)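 T47D cells in RPMI/10% FBS/insulin (0.2 units/mL) or SKBR3 in McCoys 5a/10% FBS, 1,500 cells/well, grown 72 h at 37 °C with 10-point compound dilutions. CellTiter-Glo luminescence; % inhibition normalised to 0.1% DMSO and 10 uM Alpelisib, EC50 from four-parameter curve fit.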

[2] = system: SKBR3 cells express WT PI3Ka; assay: In vitro cell proliferation, SKBR3 cells (CellTiter-Glo); details: inhibition of proliferation
In short: as §1

[3] = system: phosphorylation of AKT (pAKT) in T47D cells expressing mutant PI3Ka (H1047R); assay: In vitro cell pAKT (Ser473) HTRF, T47D cells
In short: (§2)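 Cells seeded on plates pre-stamped with 10-point compound dilutions, then grown 6 h at 37 °C (T47D in RPMI/10% FBS/insulin; SKBR3 in McCoy's 5a/10% FBS). Lysates read for pAKT Ser473 by HTRF after overnight antibody incubation. Inhibition normalised to 0.1% DMSO and 10 uM alpelisib; IC50 by four-parameter fit.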

[4] = system: phosphorylation of AKT (pAKT) in SKBR3 cells express WT PI3Ka; assay: In vitro cell pAKT (Ser473) HTRF, SKBR3 cells; details: cellular pAKT
In short: as §2

[5] = cellular pAKT, T47D cells, mutant PI3Ka (H1047R), 6 hours; read-out: Avg T-47D IC50
[6] = Homo sapiens, T47D, 6 h, cellular pAKT, T47D cells, mutant PI3Ka (H1047R), 6 hours; read-out: Avg T-47D IC50

SMILES | EC50 ([1]; 72 hours) [nM] | EC50 ([2]; Homo sapiens, SK-BR-3, 72 h) [nM] | IC50 [3, 5] [nM] | IC50 ([4]; 6 hours) [nM] | EC50 ([1]; Homo sapiens, T47D, 72 h) [nM] | IC50 [3, 6] [nM] | IC50 ([4]; Homo sapiens, SK-BR-3, 6 h) [nM] | EC50 ([2]; 72 hours) [nM] | IC50 ([3]; read-out: Avg T-47D IC50; cellular pAKT, T47D cells, mutant PI3Ka (H1047R), 6 hours) [nM]
CC(Nc1ccccc1C(=O)O)c1cc(F)cc2c(=O)n(C)c(N3CCN(CC(F)(F)F)CC3)c(F)c12 (single isomer, unassigned) [Example 572] | 1 to 500 | > 15000 | 1 to 500 | 2000 to 15000 |  |  |  |  | 
Cc1cc(C(C)Nc2ccccc2C(=O)O)c2cc(N3CC[C@H](c4ccccc4)C3)n(C)c(=O)c2c1 (stereo partly drawn) [Example 64] |  | > 15000 |  |  | 500 to 2000 | 1 to 500 | > 15000 |  | 
Cc1cc([C@@H](C)Nc2ccccc2C(=O)O)c2cc(N3CCN(c4ccnc(C)n4)CC3)n(C)c(=O)c2c1 [Example 187] |  | 2000 to 15000 |  |  | 1 to 500 | 1 to 500 | > 15000 |  | 
Cc1cc([C@@H](C)Nc2cccc(F)c2C(=O)O)c2cc(N3CCN(c4cc(C)ncn4)CC3)n(C)c(=O)c2c1 [Example 328] |  | 2000 to 15000 |  |  | 500 to 2000 | 500 to 2000 | > 15000 |  | 
Cc1cc(C(C)Nc2ccccc2C(=O)O)c2cc(N3CCS(=O)(=O)CC3)n(C)c(=O)c2c1 (single isomer, unassigned) [Example 150] | 2000 to 15000 | > 15000 | 2000 to 15000 |  |  |  | > 15000 |  | 
C[C@@H](Nc1ccccc1C(=O)O)c1cc(F)cc2c(=O)n(C)c(I)cc12 [Example 559] |  | > 15000 |  |  | 500 to 2000 | 500 to 2000 | > 15000 |  | 
Cc1cc([C@@H](C)Nc2ccccc2C(=O)O)c2cc(-c3ccc(OC4CC4)nc3)n(C)c(=O)c2c1 [Example 216] |  | > 15000 |  |  | 1 to 500 | 1 to 500 | > 15000 |  | 
Cc1cc(C(C)Nc2ccccc2C(=O)O)c2cc(N3CCc4ncncc4C3)n(C)c(=O)c2c1 (stereo not drawn) [Example 86] |  | > 15000 |  |  | 2000 to 15000 | 500 to 2000 | > 15000 |  | 
Cc1cc([C@@H](C)Nc2ccccc2C(=O)O)c2cc(N3CCN(c4cccnc4C#N)CC3)n(C)c(=O)c2c1 [Example 188] |  | 2000 to 15000 |  |  | 1 to 500 | 1 to 500 | 500 to 2000 |  | 
Cc1cc([C@@H](C)Nc2ccccc2C(=O)O)c2cc(N3CCn4c(nnc4C(F)(F)F)C3)n(C)c(=O)c2c1 [Example 435] | 2000 to 15000 |  | 2000 to 15000 | > 15000 |  |  |  | > 15000 | 
Cc1cc(C(C)Nc2ccccc2C(=O)O)c2cc(N3CCC4(CCN(CC(F)(F)F)C4)CC3)n(C)c(=O)c2c1 (single isomer, unassigned) [Example 96] | 1 to 500 |  | 1 to 500 |  |  |  | > 15000 | 2000 to 15000 | 
CC(C)c1ncc(-c2cc3c([C@@H](C)Nc4ccccc4C(=O)O)cc(Cl)cc3c(=O)n2C)cn1 [Example 337] |  | > 15000 |  |  | 1 to 500 | 1 to 500 | > 15000 |  | 
C[C@@H](Nc1cccc(F)c1C(=O)O)c1cc(F)cc2c(=O)n(C)c(C3C[C@@H]3C3CC3)cc12 (single isomer, unassigned) [Example 425] | 500 to 2000 | > 15000 |  |  |  | 1 to 500 | > 15000 |  | 
Cc1nc(N2CCN(c3cc4c([C@@H](C)Nc5ccccc5C(=O)O)cc(F)cc4c(=O)n3C)CC2)cs1 [Example 491] |  | 2000 to 15000 |  |  | 1 to 500 | 1 to 500 | 2000 to 15000 |  | 
Cc1cc(C(C)Nc2ccccc2C(=O)O)c2cc(N3C[C@H]4CN(CC(F)(F)F)C[C@H]4C3)n(C)c(=O)c2c1 (single isomer, unassigned) [Example 31] | 1 to 500 |  | 1 to 500 | > 15000 |  |  |  | 2000 to 15000 | 
C[C@@H](Nc1ccccc1C(=O)O)c1cc(F)cc2c(=O)n(C)c(C3CC3)cc12 [Example 455] |  | > 15000 |  |  | 1 to 500 | 1 to 500 | > 15000 |  | 
Cc1cc(C(C)Nc2ccccc2C(=O)O)c2cc(N3CC4(C3)CC(F)(F)C4)n(C)c(=O)c2c1 (single isomer, unassigned) [Example 80] | > 15000 | > 15000 | > 15000 |  |  |  | > 15000 |  | 
Cc1cc([C@@H](C)Nc2ccccc2C(=O)O)c2cc(C3C[C@H]3C)n(C)c(=O)c2c1 (stereo partly drawn) [Example 305] |  | > 15000 |  |  | 1 to 500 | 1 to 500 | > 15000 |  | 

SMILES | EC50 ([1]; 72 hours) [nM] | EC50 ([2]; Homo sapiens, SK-BR-3, 72 h) [nM] | IC50 [3, 5] [nM] | IC50 ([4]; 6 hours) [nM] | EC50 ([1]; Homo sapiens, T47D, 72 h) [nM] | IC50 [3, 6] [nM] | IC50 ([4]; Homo sapiens, SK-BR-3, 6 h) [nM] | EC50 ([2]; 72 hours) [nM] | IC50 ([3]; read-out: Avg T-47D IC50; cellular pAKT, T47D cells, mutant PI3Ka (H1047R), 6 hours) [nM]
C[C@@H](Nc1cccc(F)c1C(=O)O)c1cc(F)cc2c(=O)n(C)c(C3C[C@@H]3C(F)F)cc12 (single isomer, unassigned) [Example 476] | 500 to 2000 |  | 1 to 500 | > 15000 |  |  |  | > 15000 | 
Cc1cc(C(C)Nc2ccccc2C(=O)O)c2cc(N3CC4(C3)CC(F)(F)C4)n(C)c(=O)c2c1 (stereo not drawn) [Example 56] |  | > 15000 |  |  | 2000 to 15000 | 500 to 2000 | > 15000 |  | 
Cc1cc([C@@H](C)Nc2ccccc2C(=O)O)c2cc(-c3cnc(C)cn3)n(C)c(=O)c2c1 [Example 275] |  | > 15000 |  |  | 1 to 500 | 1 to 500 | > 15000 |  | 
Cc1cc(C(C)Nc2ccccc2C(=O)O)c2cc(N3Cc4cccnc4C3)n(C)c(=O)c2c1 (stereo not drawn) [Example 65] |  | > 15000 |  |  | 500 to 2000 | 1 to 500 | > 15000 |  | 
Cc1cc(C(C)Nc2ccccc2C(=O)O)c2c(F)c(C3=CCN(CC(F)(F)F)CC3)n(C)c(=O)c2c1 (single isomer, unassigned) [Example 359] | 1 to 500 |  | 1 to 500 | > 15000 |  |  |  | > 15000 | 
Cc1cc(C(C)Nc2ccccc2C(=O)O)c2cc(N3CCC(C)(C)CC3)n(C)c(=O)c2c1 (single isomer, unassigned) [Example 2, 2-((1-(3-(4,4-dimethylpiperidin-1-yl)-2,7-dimethyl-1-oxo-1,2-dihydroisoquinolin-5-yl)ethyl)amino)benzoic acid] | 2000 to 15000 |  |  | > 15000 |  |  |  | > 15000 | > 15000
Cc1cc([C@@H](C)Nc2cnc(Cl)nc2C(=O)O)c2cc(N3CCN(CC(F)(F)F)CC3)n(C)c(=O)c2c1 [Example 377] | 2000 to 15000 |  | 2000 to 15000 | > 15000 |  |  |  | > 15000 | 
Cc1cc([C@@H](C)Nc2nccnc2C(=O)O)c2cc(N3CCN(CC(F)(F)F)CC3)n(C)c(=O)c2c1 [Example 485] |  | 2000 to 15000 |  |  | 2000 to 15000 | 500 to 2000 | > 15000 |  | 
Cc1ccc(N[C@H](C)c2cc(F)cc3c(=O)n(C)c(-c4ccc(OCC(F)(F)F)nc4)cc23)c(C(=O)O)n1 [Example 557] | 500 to 2000 |  | 1 to 500 | > 15000 |  |  |  | 2000 to 15000 | 
Cc1cc([C@@H](C)Nc2ccccc2C(=O)O)c2cc(OCC3(C)CC3)n(C)c(=O)c2c1 [Example 333] |  | > 15000 |  |  | 1 to 500 | 1 to 500 | > 15000 |  | 
Cc1cc(C(C)Nc2ccccc2C(=O)O)c2cc(N3C[C@H]4CN(CC(F)(F)F)C[C@H]4C3)n(C)c(=O)c2c1 (single isomer, unassigned) [Example 30] | 2000 to 15000 | 2000 to 15000 | > 15000 |  |  |  | > 15000 |  | 
Cc1cc(C(C)Nc2ccccc2C(=O)O)c2cc(N3C[C@@H]4CN(CC(F)(F)F)C[C@H]4C3)n(C)c(=O)c2c1 (single isomer, unassigned) [Example 108] | 2000 to 15000 |  | > 15000 | > 15000 |  |  |  | > 15000 | 
C[C@@H](Nc1cccc(F)c1C(=O)O)c1cc(F)cc2c(=O)n(C)c(-c3ccc(OC4CC4)nc3)cc12 [Example 379] |  | > 15000 |  |  | 1 to 500 | 1 to 500 | > 15000 |  | 
Cc1cc(C(C)Nc2ccccc2C(=O)O)c2cc(-c3ccc(C)nc3)n(C)c(=O)c2c1 (single isomer, unassigned) [Example 21, 2-((1-(2,7-dimethyl-3-(6-methylpyridin-3-yl)-1-oxo-1,2-dihydroisoquinolin-5-yl)ethyl)amino)benzoic acid] | 1 to 500 |  | 1 to 500 | > 15000 |  |  |  | > 15000 | 
Cc1cc([C@@H](C)Nc2ccccc2C(=O)O)c2cc(N3CCN(C(C)C(F)(F)F)CC3)n(C)c(=O)c2c1 (single isomer, unassigned) [Example 278] |  | > 15000 |  |  | 1 to 500 | 1 to 500 | > 15000 |  | 
Cc1cc(C(C)Nc2ccccc2C(=O)O)c2cc(N3CCC4(CCOCC4)CC3)n(C)c(=O)c2c1 (single isomer, unassigned) [Example 167] | 1 to 500 |  | 1 to 500 | 2000 to 15000 |  |  |  | 2000 to 15000 | 
Cc1nc(C(F)(F)F)c(F)cc1-c1ncc(-c2cc3c([C@@H](C)Nc4ccccc4C(=O)O)cc(F)cc3c(=O)n2C)cc1F [Example 576] |  | 2000 to 15000 |  |  | 1 to 500 | 1 to 500 | > 15000 |  | 
C[C@@H](Nc1ccccc1C(=O)O)c1cc(F)cc2c(=O)n(C)c(C3C[C@@H]3CF)cc12 (single isomer, unassigned) [Example 493] |  | > 15000 |  |  | 1 to 500 | 1 to 500 | > 15000 |  | 
